Where “and” joins values, the source holds several entries; their conditions need not be identical. Equal entries are not always repeated.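 A five-concentration, 48-hour dose response in 96-well plates underlies each endpoint, interpolated linearly between surrounding concentrations. At the GI50, growth is halved. TGI: total growth inhibition.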
Each compound was assayed on BT-549 breast (assay: NCI tumour cell line growth inhibition, 48 h).
Work on COc1ccc2c(=O)oc3c(OC)cc(CCN(C)C)c4c(=O)oc1c2c34 yielded a TGI of 15.4 µM. CC(C)=CCC1=C(O)c2ccccc2C(=O)C1=O was tested, and the TGI was over 100 µM. For NC(=S)N/N=C/c1ncccc1O, the GI50 was 1.58 µM and the TGI was over 1000 µM. COc1ccc(/C=C\c2cc(OC)c(OC)c(OC)c2)cc1OCC(=O)O was tested, and the TGI was over 100 µM.

What follows are compounds tested on DMS 114 small cell lung (assay: NCI tumour cell line growth inhibition, 48 h).
COc1ccc2c(=O)oc3c(OC)cc(CCN(C)C)c4c(=O)oc1c2c34 showed a TGI of 24.9 µM. Work on O/N=C1\CCCCC1C(NO)c1ccccc1 (configuration not stated) yielded a TGI of over 100 µM. C[N+](C)(C)CC(=O)N/N=C(/Cc1cc(=O)oc2cc(O)ccc12)C(=O)Nc1ccc(Cl)cc1 was tested, and the TGI was over 100 µM. Work on COc1cc(OC)c(OC)cc1/C=N/NC(=O)N/N=C/c1cc(OC)c(OC)cc1OC yielded a TGI of over 100 µM. Cc1cc2c(cc1C)[n+](=O)cc(C(=O)C/C(=N/NC(=S)NN)C(=O)Nc1cccc(C(F)(F)F)c1)n2[O-] showed a TGI of over 100 µM. Compound COCOCCC#CCO has a TGI of over 100 µM. With COc1cc(C[P+](c2ccccc2)(c2ccccc2)c2ccccc2)cc(OC)c1OC the TGI was over 100 µM. For CC(C)=CCC1=C(O)c2ccccc2C(=O)C1=O, the TGI was over 100 µM. CCCN(CCC)c1c([N+](=O)[O-])cc(C(=O)N(CC)CC)cc1[N+](=O)[O-] showed a TGI of 42.8 µM. COC(=N)c1csc(C2OC(CO)C(O)C2O)n1 (configuration not stated) showed a TGI of over 100 µM. With CN1Nc2ccccc2CC1=O the TGI was over 100 µM. For CCOc1ccc(OCC(=O)O)c2c1CCCC2=O, the TGI was over 100 µM. With Nc1c(S(=O)(=O)c2ccc(Cl)cc2)c2nc3ccccc3nc2n2ccnc12 the TGI was over 100 µM. In the case of COc1ccc(/C=C\c2cc(OC)c(OC)c(OC)c2)cc1OCC(=O)O, the TGI is reported as over 100 µM. Work on Oc1oc(C(=C2N=c3ccccc3=N2)c2ccc(Cl)cc2)c(O)c1-c1ccc(Cl)cc1 yielded a TGI of 5.52 µM. Compound Cc1nc2c(N)ncnc2o1 has a TGI of over 100 µM. In the case of O=C1C/C(Br)=C\c2ccccc2-c2ccccc21, the TGI is reported as 6.58 µM. CCCCCCCCCCCC[N+]12CC[N+](CCN)(CC1)CC2 showed a TGI of over 100 µM. In the case of O=c1[nH]c(=O)n(C2CC(O)C(CO)O2)cc1OS(=O)(=O)C(F)(F)F (configuration not stated), the TGI is reported as over 100 µM. In the case of O=C1C=C(Nc2ccc(Cl)cc2C(=O)c2ccccc2)c2ccccc2C1=O, the TGI is reported as over 100 µM. For CC[C@@H]1NC(C(=O)OC)Cc2c1[nH]c1ccccc21 (some centres not stated), the TGI was over 100 µM. With O=C1C=C(c2c(O)ccc3ccccc23)c2cc(O)ccc2C1=O the TGI was 19.6 µM. With O=C(c1ccc([N+](=O)[O-])cc1[N+](=O)[O-])N(/N=C/C=C/c1ccccc1)c1nnc(-c2ccccc2)c(-c2ccccc2)n1 the TGI was over 100 µM. Compound Cc1cc(C)nc(NS(=O)(=O)c2ccc(Nc3c4ccccc4nc4c(C(=O)N5CCN(CCO)CC5)cccc34)cc2)n1 has a TGI of over 100 µM. For CC1=C(C(=O)Nc2ccccc2)C(c2ccc(Cl)c(Cl)c2)C(C(=O)Nc2ccccc2)=C(C)N1, the TGI was 24.8 µM. In the case of COc1ccc(NC(=O)CSc2nnc(-c3ccc(NC(C)=O)cc3)o2)cc1, the TGI is reported as 19.3 µM. Compound CC(=O)N/C(=C\c1ccccc1/C=C(\NC(C)=O)c1nc2cc(C)c(C)cc2[nH]1)c1nc2cc(C)c(C)cc2[nH]1 has a TGI of 11.2 µM. Compound CC12c3ccccc3C(OC=O)(c3ccccc31)C1(C)c3ccccc3C2(OC=O)c2ccccc21 has a TGI of over 100 µM. CCOC(=O)Cc1csc(Nc2ccccc2[N+](=O)[O-])n1 showed a TGI of over 100 µM.

The compounds below were run on KM20L2 colon (assay: NCI tumour cell line growth inhibition, 48 h).
COc1ccc2c(=O)oc3c(OC)cc(CCN(C)C)c4c(=O)oc1c2c34 gave a TGI of 28.1 µM. Work on C/C(=N\NC(N)=O)c1sc(-c2nc(C)c(/C(C)=N/NC(N)=O)s2)nc1C yielded a TGI of over 100 µM. O/N=C1\CCCCC1C(NO)c1ccccc1 (configuration not stated) gave a TGI of over 100 µM. C[N+](C)(C)CC(=O)N/N=C(/Cc1cc(=O)oc2cc(O)ccc12)C(=O)Nc1ccc(Cl)cc1 gave a TGI of over 100 µM. With COc1cc(OC)c(OC)cc1/C=N/NC(=O)N/N=C/c1cc(OC)c(OC)cc1OC the TGI was over 100 µM. In the case of FC(F)(F)c1ccc2nc(NCc3ccccc3)c(-c3ccccc3)nc2c1, the TGI is reported as over 100 µM. In the case of COCOCCC#CCO, the TGI is reported as over 100 µM. COc1cc(C[P+](c2ccccc2)(c2ccccc2)c2ccccc2)cc(OC)c1OC was tested, and the TGI was over 100 µM. CC(C)=CCC1=C(O)c2ccccc2C(=O)C1=O was tested, and the GI50 was > 100 µM and 48.9 µM and the TGI was over 100 µM. CCCN(CCC)c1c([N+](=O)[O-])cc(C(=O)N(CC)CC)cc1[N+](=O)[O-] showed a TGI of 53.1 µM. NC(=S)N/N=C/c1ncccc1O was tested, and the GI50 was 3.74 µM and the TGI was 76.5 µM. COC(=N)c1csc(C2OC(CO)C(O)C2O)n1 (configuration not stated) showed a TGI of over 100 µM. CN1Nc2ccccc2CC1=O showed a TGI of over 100 µM. In the case of COc1ccc(/C=C\c2cc(OC)c(OC)c(OC)c2)cc1OCC(=O)O, the TGI is reported as over 100 µM. With CCOc1ccc(NC(=O)CC2SC(=Nc3ccc(C)cc3C)NC2=O)cc1 (configuration not stated) the TGI was over 100 µM. For Oc1oc(C(=C2N=c3ccccc3=N2)c2ccc(Cl)cc2)c(O)c1-c1ccc(Cl)cc1, the TGI was 10.2 µM. In the case of Cc1nc2c(N)ncnc2o1, the TGI is reported as over 100 µM. With O=C1C/C(Br)=C\c2ccccc2-c2ccccc21 the TGI was 8.28 µM. Work on CCCCCCCCCCCC[N+]12CC[N+](CCN)(CC1)CC2 yielded a TGI of over 100 µM. In the case of O=c1[nH]c(=O)n(C2CC(O)C(CO)O2)cc1OS(=O)(=O)C(F)(F)F (configuration not stated), the TGI is reported as over 100 µM. O=C1C=C(Nc2ccc(Cl)cc2C(=O)c2ccccc2)c2ccccc2C1=O showed a TGI of over 100 µM. Work on CC[C@@H]1NC(C(=O)OC)Cc2c1[nH]c1ccccc21 (some centres not stated) yielded a TGI of over 100 µM. Work on O=C1C=C(c2c(O)ccc3ccccc23)c2cc(O)ccc2C1=O yielded a TGI of 38.7 µM. O=C(c1ccc([N+](=O)[O-])cc1[N+](=O)[O-])N(/N=C/C=C/c1ccccc1)c1nnc(-c2ccccc2)c(-c2ccccc2)n1 gave a TGI of over 100 µM. Compound Cc1cc(C)nc(NS(=O)(=O)c2ccc(Nc3c4ccccc4nc4c(C(=O)N5CCN(CCO)CC5)cccc34)cc2)n1 has a TGI of over 100 µM. Compound CC1=C(C(=O)Nc2ccccc2)C(c2ccc(Cl)c(Cl)c2)C(C(=O)Nc2ccccc2)=C(C)N1 has a TGI of 29.8 µM. COc1ccc(NC(=O)CSc2nnc(-c3ccc(NC(C)=O)cc3)o2)cc1 was tested, and the TGI was 36.8 µM. For CC(=O)N/C(=C\c1ccccc1/C=C(\NC(C)=O)c1nc2cc(C)c(C)cc2[nH]1)c1nc2cc(C)c(C)cc2[nH]1, the TGI was over 100 µM. For CC12c3ccccc3C(OC=O)(c3ccccc31)C1(C)c3ccccc3C2(OC=O)c2ccccc21, the TGI was over 100 µM. For CCOC(=O)Cc1csc(Nc2ccccc2[N+](=O)[O-])n1, the TGI was over 100 µM.

Each compound was assayed on M19-MEL melanoma (assay: NCI tumour cell line growth inhibition, 48 h).
With COc1ccc2c(=O)oc3c(OC)cc(CCN(C)C)c4c(=O)oc1c2c34 the TGI was 28.1 µM. For C/C(=N\NC(N)=O)c1sc(-c2nc(C)c(/C(C)=N/NC(N)=O)s2)nc1C, the TGI was over 100 µM. Work on O/N=C1\CCCCC1C(NO)c1ccccc1 (configuration not stated) yielded a TGI of over 100 µM. Compound C[N+](C)(C)CC(=O)N/N=C(/Cc1cc(=O)oc2cc(O)ccc12)C(=O)Nc1ccc(Cl)cc1 has a TGI of over 100 µM. Work on COc1cc(OC)c(OC)cc1/C=N/NC(=O)N/N=C/c1cc(OC)c(OC)cc1OC yielded a TGI of over 100 µM. FC(F)(F)c1ccc2nc(NCc3ccccc3)c(-c3ccccc3)nc2c1 was tested, and the TGI was over 100 µM. Cc1cc2c(cc1C)[n+](=O)cc(C(=O)C/C(=N/NC(=S)NN)C(=O)Nc1cccc(C(F)(F)F)c1)n2[O-] showed a TGI of over 100 µM. Compound COc1cc(C[P+](c2ccccc2)(c2ccccc2)c2ccccc2)cc(OC)c1OC has a TGI of over 100 µM. With CC(C)=CCC1=C(O)c2ccccc2C(=O)C1=O the GI50 was 48.5 µM and 20.8 µM and the TGI was over 100 µM. CCCN(CCC)c1c([N+](=O)[O-])cc(C(=O)N(CC)CC)cc1[N+](=O)[O-] was tested, and the TGI was 47.8 µM.

From PubChem BioAssay (NCI)
